The first test concerns HIV. Description: Table 1 IC50 of the examples (assay method not given; patent concerns inhibiting HIV replication). In kind it is cell-based.
Details: not given
In turn, `COc1c(F)cccc1C(=O)N1CCc2c1cc(C)c([C@H](OC(C)(C)C)C(=O)O)c2-c1cc(F)c2c(c1C)CCCO2` (atropisomer, axis not shown; (P)) [Example 23, (S)-2-(tert-Butoxy)-2-((P)-1-(3-fluoro-2-methoxybenzoyl)-4-(8-fluoro-5-methylchroman-6-yl)-6-methylindolin-5-yl)acetic acid] showed an IC50 of 95 nM.

Still in this test, the particulars now being: Human immunodeficiency virus 1.
As to `COc1ccc(C(=O)N2CCc3c2cc(C)c([C@H](OC(C)(C)C)C(=O)O)c3-c2ccc3c(c2C)CCCO3)c(OC)c1` (atropisomer, axis not shown) [Example 185, (S)-2-(tert-Butoxy)-2-((R)-1-(2,4-dimethoxybenzoyl)-6-methyl-4-(5-methylchroman-6-yl)indolin-5-yl)acetic acid], the IC50 was 9 nM.

The compound `COc1ccc(C(=O)N2CCc3c2cc(C)c([C@H](OC(C)(C)C)C(=O)O)c3-c2ccc3c(c2C)CCCO3)cc1OC` (atropisomer, axis not shown) [Example 186, (S)-2-(tert-Butoxy)-2-((R)-1-(3,4-dimethoxybenzoyl)-6-methyl-4-(5-methylchroman-6-yl)indolin-5-yl)acetic acid] came in with an IC50 of 6 nM.

Turning to `COc1ccc(C(=O)N2CCc3c2cc(C)c([C@H](OC(C)(C)C)C(=O)O)c3-c2ccc3c(c2C)CCCO3)cc1F` (atropisomer, axis not shown) [Example 187, (S)-2-(tert-Butoxy)-2-((R)-1-(3-fluoro-4-methoxybenzoyl)-6-methyl-4-(5-methylchroman-6-yl)indolin-5-yl)acetic acid], the 50% inhibitory concentration (IC50) was found to be 6 nM. As to `Cc1ccccc1C(=O)N1CCc2c1cc(C)c([C@H](OC(C)(C)C)C(=O)O)c2-c1ccc2c(c1C)CCCO2` (atropisomer, axis not shown) [Example 188, (S)-2-(tert-Butoxy)-2-((R)-6-methyl-1-(2-methylbenzoyl)-4-(5-methylchroman-6-yl)indolin-5-yl)acetic acid], the IC50 was determined as 5 nM. `Cc1cc2c(c(-c3ccc4c(c3C)CCCO4)c1[C@H](OC(C)(C)C)C(=O)O)CCN2C(=O)c1cc(F)cc(F)c1` (atropisomer, axis not shown) [Example 189, (S)-2-(tert-Butoxy)-2-((R)-1-(3,5-difluorobenzoyl)-6-methyl-4-(5-methylchroman-6-yl)indolin-5-yl)acetic acid] displayed an IC50 of 6 nM.

For the compound `COc1ccc(C(=O)N2CCc3c2cc(C)c([C@H](OC(C)(C)C)C(=O)O)c3-c2ccc3c(c2C)CCCO3)cc1C` (atropisomer, axis not shown) [Example 190, (S)-2-(tert-Butoxy)-2-((R)-1-(4-methoxy-3-methylbenzoyl)-6-methyl-4-(5-methylchroman-6-yl)indolin-5-yl)acetic acid], the midpoint of inhibition, the IC50, lay at 124 nM. On the same count and under the same terms, for `Cc1ccc(C(=O)N2CCc3c2cc(C)c([C@H](OC(C)(C)C)C(=O)O)c3-c2ccc3c(c2C)CCCO3)cn1` (atropisomer, axis not shown) [Example 191, (S)-2-(tert-Butoxy)-2-((R)-6-methyl-4-(5-methylchroman-6-yl)-1-(6-methylnicotinoyl)indolin-5-yl)acetic acid] the value was 868 nM.

Compound `COc1ccc(C(=O)N2CCc3c2cc(C)c([C@H](OC(C)(C)C)C(=O)O)c3-c2cc(OC)c3c(c2C)CCCO3)cc1C` (atropisomer, axis not shown) [Example 192, (S)-2-(tert-Butoxy)-2-((R)-1-(4-methoxy-3-methylbenzoyl)-4-(8-methoxy-5-methylchroman-6-yl)-6-methylindolin-5-yl)acetic acid] had an IC50 of 5 nM. `COc1cc(-c2c3c(cc(C)c2[C@H](OC(C)(C)C)C(=O)O)N(C(=O)c2ccc(C)nc2)CC3)c(C)c2c1OCCC2` (atropisomer, axis not shown) [Example 193, (S)-2-(tert-Butoxy)-2-((R)-4-(8-methoxy-5-methylchroman-6-yl)-6-methyl-1-(6-methylnicotinoyl)indolin-5-yl)acetic acid] returned a 50% inhibitory concentration (IC50) of 9 nM.

The compound `COc1ccc(C(=O)N2CCc3c2cc(C)c([C@H](OC(C)(C)C)C(=O)O)c3-c2cc(C)c3c(c2C)CCCO3)cc1C` (atropisomer, axis not shown) [Example 194, (S)-2-(tert-Butoxy)-2-((R)-4-(5,8-dimethylchroman-6-yl)-1-(4-methoxy-3-methylbenzoyl)-6-methylindolin-5-yl)acetic acid] came in with an IC50 of 43 nM. This IC50 is about 4.8-fold higher than that of the compound before.

The compound `Cc1ccc(C(=O)N2CCc3c2cc(C)c([C@H](OC(C)(C)C)C(=O)O)c3-c2cc(C)c3c(c2C)CCCO3)cn1` (atropisomer, axis not shown) [Example 195, (S)-2-(tert-Butoxy)-2-((R)-4-(5,8-dimethylchroman-6-yl)-6-methyl-1-(6-methylnicotinoyl)indolin-5-yl)acetic acid] yielded a half-maximal inhibitory concentration (IC50) of 121 nM. Against the preceding compound, the IC50 is about 2.8-fold higher.

`COc1ccc(C(=O)N2CCc3c2cc(C)c([C@H](OC(C)(C)C)C(=O)O)c3-c2cc(C(F)(F)F)c3c(c2C)CCCO3)cc1C` (atropisomer, axis not shown) [Example 196, (S)-2-(tert-Butoxy)-2-((R)-1-(4-methoxy-3-methylbenzoyl)-6-methyl-4-(5-methyl-8-(trifluoromethyl)chroman-6-yl)indolin-5-yl)acetic acid]: half-maximal inhibition (IC50) was put at 359 nM. This IC50 lies about 3-fold higher than the previous one.

Consider `Cc1ccc(C(=O)N2CCc3c2cc(C)c([C@H](OC(C)(C)C)C(=O)O)c3-c2cc(C(F)(F)F)c3c(c2C)CCCO3)cn1` (atropisomer, axis not shown) [Example 197, (S)-2-(tert-Butoxy)-2-((R)-6-methyl-4-(5-methyl-8-(trifluoromethyl)chroman-6-yl)-1-(6-methylnicotinoyl)indolin-5-yl)acetic acid], for which the IC50 came out at 712 nM. Turning to `Cc1cc2c(ccn2Cc2ccc(F)c(F)c2)c(-c2cc(F)c3c(c2C)CCCO3)c1[C@H](OC(C)(C)C)C(=O)O` (atropisomer, axis not shown) [Example 198, (S)-2-(tert-Butoxy)-2-((R)-1-(3,4-difluorobenzyl)-4-(8-fluoro-5-methylchroman-6-yl)-6-methyl-1H-indol-5-yl)acetic acid], the IC50 came out at 150 nM. With `Cc1cc(F)ccc1Cn1ccc2c(-c3cc(F)c4c(c3C)CCCO4)c([C@H](OC(C)(C)C)C(=O)O)c(C)cc21` (atropisomer, axis not shown) [Example 199, (S)-2-(tert-Butoxy)-2-((R)-1-(4-fluoro-2-methylbenzyl)-4-(8-fluoro-5-methylchroman-6-yl)-6-methyl-1H-indol-5-yl)acetic acid], half-maximal inhibition (IC50) was put at 42 nM. `COc1c(F)cccc1Cn1ccc2c(-c3cc(F)c4c(c3C)CCCO4)c([C@H](OC(C)(C)C)C(=O)O)c(C)cc21` (atropisomer, axis not shown) [Example 200, (S)-2-(tert-Butoxy)-2-((R)-1-(3-Fluoro-2-methoxybenzyl)-4-(8-fluoro-5-methylchroman-6-yl)-6-methyl-1H-indol-5-yl)acetic acid] showed a half-inhibitory concentration (IC50) of 34 nM.

Turning to `Cc1cc2c(ccn2Cc2ccccn2)c(-c2cc(F)c3c(c2C)CCCO3)c1[C@H](OC(C)(C)C)C(=O)O` (atropisomer, axis not shown) [Example 201, (S)-2-(tert-Butoxy)-2-((R)-4-(8-Fluoro-5-methylchroman-6-yl)-6-methyl-1-(pyridin-2-ylmethyl)-1H-indol-5-yl)acetic acid], the IC50 came to 80 nM. Compared with the last compound, the IC50 is about 2.4-fold higher. In the case of `Cc1cc2c(ccn2C(=O)c2ccc(F)c(F)c2)c(-c2cc(F)c3c(c2C)CCCO3)c1[C@H](OC(C)(C)C)C(=O)O` (atropisomer, axis not shown) [Example 203, (S)-2-(tert-Butoxy)-2-((R)-1-(3,4-difluorobenzoyl)-4-(8-fluoro-5-methylchroman-6-yl)-6-methyl-1H-indol-5-yl)acetic acid], inhibition was half-maximal at 16 nM (IC50). As to `Cc1ccc(C(=O)N2c3cc(C)c([C@H](OC(C)(C)C)C(=O)O)c(-c4cc(F)c5c(c4C)CCCO5)c3CC2(C)C)cn1` (atropisomer, axis not shown) [Example 204, (S)-2-(tert-Butoxy)-2-((R)-4-(8-Fluoro-5-methylchroman-6-yl)-2,2,6-trimethyl-1-(6-methylnicotinoyl)indolin-5-yl)acetic acid], the IC50 came to 19 nM. On the same count and under the same terms, for `COc1ccc(C)cc1C(=O)N1c2cc(C)c([C@H](OC(C)(C)C)C(=O)O)c(-c3cc(F)c4c(c3C)CCCO4)c2CC1(C)C` (atropisomer, axis not shown) [Example 205, (S)-2-(tert-Butoxy)-2-((R)-4-(8-Fluoro-5-methylchroman-6-yl)-1-(2-methoxy-5-methylbenzoyl)-2,2,6-trimethylindolin-5-yl)acetic acid] the value was 20 nM; for `COc1ccc(C(=O)N2c3cc(C)c([C@H](OC(C)(C)C)C(=O)O)c(-c4cc(F)c5c(c4C)CCCO5)c3CC2(C)C)cc1C` (atropisomer, axis not shown) [Example 206, (S)-2-(tert-Butoxy)-2-((R)-4-(8-fluoro-5-methylchroman-6-yl)-1-(4-methoxy-3-methylbenzoyl)-2,2,6-trimethylindolin-5-yl)acetic acid], 13 nM. On the same count and under the same terms, for `Cc1ccc(-c2c3c(cc(C)c2C(OC(C)(C)C)C(=O)O)N(Cc2ccc(F)c(F)c2)CC3)cc1` (stereo not drawn) [Example 1] the value was 517 nM; for `Cc1cc2c(c(-c3cc(F)c4c(c3C)CCCO4)c1C(OC(C)(C)C)C(=O)O)CCN2Cc1ccc(F)c(F)c1` (stereo not drawn) [Example 2, 2-(tert-Butoxy)-2-(1-(3,4-difluorobenzyl)-4-(8-fluoro-5-methylchroman-6-yl)-6-methylindolin-5-yl)acetic acid], 330 nM. Same read-out and setting: for `Cc1ccc(-c2c3c(cc(C)c2C(OC(C)(C)C)C(=O)O)N(C(=O)c2ccc(F)c(F)c2)CC3)cc1` (stereo not drawn) [Example 3, 2-(tert-Butoxy)-2-(1-(3,4-difluorobenzoyl)-6-methyl-4-(p-tolyl)indolin-5-yl)acetic acid] the value was 12 nM. Compound `Cc1ccc(-c2c3c(cc(C)c2C(OC(C)(C)C)C(=O)O)N(C2CCCCC2)CC3)cc1` (stereo not drawn) [Example 4, 2-(tert-Butoxy)-2-(1-cyclohexyl-6-methyl-4-(p-tolyl)indolin-5-yl)acetic acid] gave an IC50 of 7520 nM. Against the preceding compound, the IC50 is about 630-fold higher. Still for that read-out and setting: the same measure for `Cc1ccc(-c2c3c(cc(C)c2C(OC(C)(C)C)C(=O)O)N(C(=O)C(=O)N2CCCCC2)CC3)cc1` (stereo not drawn) [Example 5, 2-(tert-Butoxy)-2-(6-methyl-1-(2-oxo-2-(piperidin-1-yl)acetyl)-4-(p-tolyl)indolin-5-yl)acetic acid]: 343 nM.

Values taken from US20190284136A1, “INDOLINE DERIVATIVES” (ViiV HEALTHCARE UK LIMITED, priority 2016, published 2019).
